Data from patent publication US20200079765A1, “SUBSTITUTED HETEROARYL PYRROLONES AND SALTS THEREOF AND USE THEREOF AS HERBICIDAL ACTIVE SUBSTANCES” (Bayer CropScience Aktiengesellschaft, priority 2016, published 2020).

Legend:
[1] = test system: Amaranthus retroflexus; assay: Herbicidal pre-emergence action (Experimental Part 2, D); format: in vivo; details: pre-emergence (Part 2), scored visually after about 3 weeks
Text: (§1) Seeds of mono- and dicotyledonous weed plants were placed in plastic pots in sandy loam soil (doubly sown with in each case one species of mono- or dicotyledonous weed plants per pot) and covered with soil. The compounds of the invention, formulated in the form of wettable powders (WP) or as emulsion concentrates (EC), were then applied onto the surface of the covering soil as aqueous suspension or emulsion with addition of 0.5% additive at a water application rate of 600 liters per hectare (converted). After the treatment, the pots are placed in a greenhouse and kept under good growth conditions for the trial plants. After about 3 weeks, the effect of the preparations was scored visually in comparison with untreated controls as percentages. For example, 100% activity=the plants have died, 0% activity=like control plants. Tables D1 to D8 below show the effects of selected compounds of the general formula (I) according to Tables I.1 to I.116 on various harmful plants and an application rate corresponding to 1280 g/ha or 320 g/ha, which were obtained by the experimental procedure mentioned above.

[2] = test system: Stellaria media; assay: as above; format: in vivo; details: pre-emergence (Part 2), scored visually after about 3 weeks
Text: as §1

[3] = molecular target: T1, photosystem II (PS II) (Spinacia oleracea, UniProt P69560); assay: Measurement of the PS II activity in thylakoid membranes (DCPIP reduction, Experimental Part 3, Table E1); format: biochemical; details: spinach thylakoid membranes
T1 construct: the chloroplasts were osmotically ruptured and the thylakoid membranes were then obtained by centrifugation; from tissue; host or cells: thylakoid membranes from fresh spinach leaves
Procedure: Cooled fresh spinach leaves were comminuted and homogenized in 50 mM phosphate buffer, pH 6.8. 10 mM KCl, 0.34 M sucrose (sucrose buffer) (blender, 1 g of plant material/ml). The homogenate was subsequently filtered through 4 layers of Miracloth and the chloroplasts were isolated by centrifugation, i.e. 10 min of centrifugation at 4400×g (4° C.). The sediment was suspended in 25 ml of sucrose buffer and re-centrifuged for 10 min at 4400×g (4° C.). The sediment was then suspended in 40 ml of 50 mM phosphate buffer, pH 6.8, 10 mM KCl, without sucrose. In this step, the chloroplasts were osmotically ruptured and the thylakoid membranes were then obtained by centrifugation (10 min, 4400×g, 4° C.). The membrane sediment was finally suspended in about 20 ml of 50 mM phosphate buffer, pH 6.8, 10 mM KCl. Following protein determination and activity determination, the membrane suspension was divided into aliquots and frozen in liquid nitrogen. The aliquots were stored at −80° C. Under these conditions, the photosystem II preparation was storage stable for at least three months. The activity determination of photosystem II (PS II) was then carried out using the following test principle: The electron transfer from PS II to an artificial electron acceptor, 2,6-dichlorophenolindophenol (DCPIP), was measured with exposure to light. The concentration of the blue oxidized form of DCPIP was determined spectrophotometrically at wavelength λ=595 nm. […] The activity determination was carried out in microtiter plates (96 cavities) in a reaction volume of 200 μl. Here, 155 μl of dilute membrane suspension were initially charged in 50 mM of phosphate buffer, pH 6.8, 10 mM KCl. Depending on the activity of the PS II preparation, the dilution was adjusted such that the measurement of the decrease in absorption (λ=595 nm) was linear for at least 10 min. In each case 5 μl solution of the test compounds of a concentration of 100 μM in DMSO were added to the enzyme suspension; controls contained 5 μl DMSO; the final concentration of DMSO in the reaction batch was thus 2.5% (v/v); this concentration had no adverse effect on the enzymatic activity. On each microtiter plate, a known PS II inhibitor, for example metribuzin, was used as standard, which allowed the quality of the PS II test to be assessed. The reaction was started by addition of 40 μl DCPIP solution (600 μM in distilled water); the final concentration of DCPIP was 120 μM. Measurement of absorption was carried out over a period of 10 min at 22° C. and with exposure to light. Using metribuzin as comparative substance, the results for the efficacy of the compounds of the general formula (I) at 100 μM are stated in the table below using the following classification: ++++ (inhibition≥90%), +++ (90%>inhibition≥70%), ++ (70%>inhibition≥50%), + (50%>inhibition≥30%).
Effects of selected compounds of the general formula (I) according to the following table E1: […]

[4] = test system: Matricaria inodora; assay: Herbicidal post-emergence action (Experimental Part 2, C); format: in vivo; details: post-emergence (Part 2), application rate 1280 g/ha, rated visually after about 3 weeks
Procedure: (§2) Seeds of mono- and dicotyledonous weed plants were placed in plastic pots in sandy loam soil (doubly sown with in each case one species of mono- or dicotyledonous weed plants per pot), covered with soil and cultivated in a greenhouse under controlled growth conditions. 2 to 3 weeks after sowing, the test plants were treated at the one-leaf stage. The compounds of the invention, formulated in the form of wettable powders (WP) or as emulsion concentrates (EC), were applied onto the green parts of the plants as aqueous suspension or emulsion with addition of 0.5% additive at a water application rate of 600 liters per hectare (converted). After the test plants had been kept in the greenhouse under optimum growth conditions for about 3 weeks, the activity of the preparations was rated visually in comparison to untreated controls. For example, 100% activity=the plants have died, 0% activity=like control plants. Tables C1 to C8 below show the effects of selected compounds of the general formula (I) according to Tables I.1 to I.116 on various harmful plants and an application rate corresponding to 1280 g/ha or 320 g/ha, which were obtained by the experimental procedure mentioned above.

[5] = test system: Amaranthus retroflexus; assay: as above; format: in vivo; details: post-emergence (Part 2), application rate 320 g/ha, rated visually after about 3 weeks
Procedure: as §2

[6] = test system: Abutilon theophrasti; assay: Herbicidal pre-emergence action (Experimental Part 2, D); format: in vivo; details: pre-emergence (Part 2), application rate 1280 g/ha, scored visually after about 3 weeks
Text: as §1

[7] = test system: Matricaria inodora; assay: as above; format: in vivo; details: pre-emergence (Part 2), scored visually after about 3 weeks
Text: as §1

[8] = test system: Abutilon theophrasti; assay: Herbicidal post-emergence action (Experimental Part 2, C); format: in vivo; details: post-emergence (Part 2), rated visually after about 3 weeks
Procedure: as §2

[9] = test system: Setaria viridis; assay: as above; format: in vivo; details: post-emergence (Part 2), application rate 1280 g/ha, rated visually after about 3 weeks
Procedure: as §2

[10] = test system: Stellaria media; assay: as above; format: in vivo; details: post-emergence (Part 2), application rate 1280 g/ha, rated visually after about 3 weeks
Procedure: as §2

[11] = test system: Setaria viridis; assay: Herbicidal pre-emergence action (Experimental Part 2, D); format: in vivo; details: pre-emergence (Part 2), application rate 1280 g/ha, scored visually after about 3 weeks
Text: as §1

[12] = test system: Poa annua; assay: as above; format: in vivo; details: pre-emergence (Part 2), scored visually after about 3 weeks
Text: as §1

Compound	Amaranthus retroflexus, herbicidal activity ([1]; application rate 1280 g/ha)	Effect (inhibition of PS II activity) [3]	Matricaria inodora, herbicidal activity [4]	Amaranthus retroflexus, herbicidal activity [5]	Abutilon theophrasti, herbicidal activity [6]	further results
CC1=CC(=O)N(c2cc(C)ns2)C1O (centres unmarked) [I.1-72]	90%	++++ (inhibition≥90%)	100%	100%		Stellaria media, herbicidal activity ([2]; application rate 1280 g/ha): 90%
CC1=CC(=O)N(c2cc(-c3ccccc3)ns2)C1O (centres unmarked) [I.1-86]		++++ (inhibition≥90%)				
CC1=CC(=O)N(c2cscn2)C1O (centres unmarked) [I.1-91]			100%	100%	100%	Matricaria inodora, herbicidal activity ([7]; application rate 1280 g/ha): 90%; Amaranthus retroflexus, herbicidal activity ([1]; application rate 320 g/ha): 100%; Abutilon theophrasti, herbicidal activity ([8]; application rate 1280 g/ha): 100%; Setaria viridis, herbicidal activity [9]: 100%; Stellaria media, herbicidal activity [10]: 100%
CC1=CC(=O)N(c2cc(C(C)C)no2)C1O (centres unmarked) [I.1-289]	90%		100%	100%	100%	Setaria viridis, herbicidal activity [11]: 90%; Poa Annua, herbicidal activity ([12]; application rate 1280 g/ha): 100%; Matricaria inodora, herbicidal activity ([7]; application rate 1280 g/ha): 100%; Stellaria media, herbicidal activity ([2]; application rate 1280 g/ha): 100%; Abutilon theophrasti, herbicidal activity ([8]; application rate 1280 g/ha): 100%
CC1=CC(=O)N(c2cc(C(C)(C)C)no2)C1O (centres unmarked) [I.1-290, 5-Hydroxy-4-methyl-1-(3-tert-butyl-1,2-isoxazol-5-yl)-1,5-dihydro-2H-pyrrol-2-one]	100%	++++ (inhibition≥90%)	100%		90%	Setaria viridis, herbicidal activity [11]: 90%; Poa Annua, herbicidal activity ([12]; application rate 320 g/ha): 90%; Matricaria inodora, herbicidal activity ([7]; application rate 320 g/ha): 100%; Stellaria media, herbicidal activity ([2]; application rate 320 g/ha): 100%; Abutilon theophrasti, herbicidal activity ([8]; application rate 320 g/ha): 100%; Stellaria media, herbicidal activity [10]: 100%
CC1=CC(=O)N(c2cc(C(C)(C)C)n(C)n2)C1O (centres unmarked) [I.1-315]		++++ (inhibition≥90%)				
CC1=CC(=O)N(c2cc(C(F)(F)F)ccn2)C1O (centres unmarked) [I.1-449]		++++ (inhibition≥90%)				
